Results as given in patent US20150329864A1, “DESIGN OF OLIGONUCLEOTIDE ANALOGS AS THERAPEUTIC AGENTS” (SPRING BANK PHARMACEUTICALS, INC., priority 2010, published 2015).
pEC50: −log10 of the molar value. Where two headings read alike, the source gives them in different places.

Legend:
[1] = tested on: HBV wild type and drug resistant strains; assay: HepG2.2.15 HBV assay; assay type: cell-based; settings: Hepatitis B virus, HepG2.2.15, read-out: EC50, inhibition of intracellular HBV replication
Experimental: Selected compounds were evaluated in in vitro cell-based HepG2.2.15 HBV assay.
Antiviral analysis. For the antiviral analyses, confluent cultures of 2.2.1.5 cells were maintained on 96-well flat-bottomed tissue culture plates in RPMI1640 medium with 2% fetal bovine serum. Cultures (6 per each test concentration on two replicate plates) were treated with 9 consecutive daily doses of the test compounds. Medium was changed daily with fresh test compounds. HBV nucleic acid and protein levels were measured 24 hours after the last treatment. Extracellular (virion) HBV DNA levels were assessed by quantitative blot hybridization. Intracellular HBV DNA levels were measured by quantitative Southern blot hybridization.

[2] = tested on: HBV-3TC-R4 LMMV; assay type: cell-based; settings: Hepatitis B virus
[3] = tested on: HCV replicon AVA5 (sub-genomic (CON1), genotype 1b); assay: Primary anti-HCV assay, replicon cell line AVA5; assay type: cell-based; settings: 3-day assay
Experimental: Antiviral activity against HCV was assessed in a 3-day assay (Okuse, et al., 2005; Antiviral. Res. 65:23; Korba, et al., 2008, Antiviral Res. 77:56) using the stably-expressing HCV replicon cell line, AVA5 (sub-genomic (CON1), genotype 1b) (Blight, et al., 2000; Science 290:1972) maintained as sub-confluent cultures on 96-well plates. Antiviral activity was determined by blot hybridization analysis of intracellular HCV RNA (normalized to the level of cellular B-actin RNA in each culture sample). Cytotoxicity was assessed by neutral red dye uptake in cultures maintained in parallel plates.
EC50, EC90, and CC50 values were calculated by linear regression analysis (MS EXCEL®, QuattroPro®) using data combined from all treated cultures Korba & Gerin, 1992, Antivir. Res. 19:55; Okuse, et al., 2005, Antivir. Res. 65:23). Standard deviations for EC50 and EC90 values are calculated from the standard errors generated by the regression analyses, EC50 and EC90 are drug concentrations at which a 2-fold, or a 10-fold depression of intracellular HCV RNA (relative to the average levels in untreated cultures), respectively was observed. […] Recombinant human interferon 2b (PBL laboratories, Inc.) is used as an assay control.

[4] = In vitro cytotoxicity, MTT assay; assay type: cell-based; settings: cattle (MDBK), African green monkey (Vero), human (HFF)
Experimental: Compounds 5 and 6k have excellent safety profile with CC50>1000 micromolar in a number of cell lines. Standard MTT assays were performed in 96-well plates using the Promega CellTiter96 Non-radioactive Cell Proliferation Assay Kit in conjunction with a 96-well Plate Reader (ThermoMax, Molecular devices), and MDBK, Vero, and HFF cell lines (obtained from ATCC). Several controls were employed including the nucleoside analogs 3TC, AZT, and ddC, as well as, media without drugs. SDS was used as a positive cytotoxic control. The compounds were tested in triplicate at concentrations of 100, 300, and 1000 μM. Following a 24-hour incubation of cells with the test substance, the MTT assay was carried out.

[5] = tested on: IRF3-luciferase reporter gene (activation of NOD2); assay: IRF3-luciferase reporter induction in HLE A549 cells endogenously expressing NOD2; assay type: cell-based, human; settings: for Fold induction of IRF3 luciferase activity: 1 µM; for fold induction at 1 µM: Homo sapiens, A549, 12 h
Experimental: In the primary assays, di- and trinucleotide compounds were tested for the induction of IRF3 expression in HLE A549 cells, which are known to express NOD2.
HLE cells normally endogenously express NOD2. To determine if short oligonucleotide compounds activate NOD2, HLE cells transfected with IRF3 plasmid were employed. IRF3-luciferase transfected cells were incubated with either DMSO only (UT) or test compounds (1 μM). Following 12 h incubation, Luciferase activity was measured using Dual-Luciferase Reporter Assay System (Promega) according to the manufacturer's protocol. Transection efficiency was normalized by measuring the expression of renilla Luciferase. Luciferase units (i.e., fold induction) were measured by standard methodology.

[6] = tested on: Human Respiratory Syncytial Virus (RSV); assay: RSV infectivity, plaque assay; assay type: cell-based; settings: human lung epithelial cells, RSV 0.5 MOI, 24 h post-infection
Experimental: (A) RSV infectivity in untreated (UT) and SMNH-treated cells. Human lung epithelial cells were infected with RSV (0.5 MOI) in the absence (DMSO only) or presence of various SMNH compounds (1 μM). At 24 h post-infection, the medium supernatant was collected and the viral titer in the supernatant was assayed by plaque assay analysis using CV-1 cell monolayer, 100% RSV infection represents viral titer from cells incubated with DMSO only (UT cells). The values represent mean±S.D. for three independent determinations. S.D. is shown as error bars.
(B) A typical plaque assay showing RSV infectivty in UT and SMNH-treated cells. Culture supernatant from RSV infected cells (+/− SMNH) was added to CV-1 cells at a dilution of […]. Plaques were observed and quantitated on methylcellulose after crystal violet staining.

[7] = tested on: PBMCs; assay type: cell-based
[8] = 1 μM, 12 h, HLE A549 cells, SMNH treated vs. untreated cells

CO[C@H]1C(OP(=O)(OC[C@H]2O[C@@H](n3cnc4c(N)ncnc43)CC2O)SCOC(=O)OC(C)C)[C@@H](CO)O[C@H]1n1ccc(=O)[nH]c1=O (stereo partly drawn) [Compound 6k]
pEC50 [1]: 5.70 to 6.52 | pEC50 [2]: 5.51 | EC90 [2]: 9.3 µM | EC90, 10-fold depression of intracellular HCV RNA [3]: about 8 micromolar | CC50 at 24 h ([4]; MTT, 24-hour incubation, tested at 100, 300, and 1000 μM, read-out: CC50): > 1000 µM | Fold induction of IRF3 luciferase activity [5, 8]: 22 fold | fold induction at 1 µM ([5]; read-out: Fold induction of IRF3 luciferase activity, 1 μM, 12 h, HLE A549 cells, SMNH treated vs. untreated cells): 15 to 20 | inhibition at 1 µM ([6]; human respiratory syncytial virus, Epithelial cell, 24 h): 60 to 80%

CO[C@H]1C(OP(=O)(S)OC[C@H]2O[C@@H](n3cnc4c(N)ncnc43)CC2O)[C@@H](CO)O[C@H]1n1ccc(=O)[nH]c1=O (stereo partly drawn) [Compound 5, 3-dApsU2′-OMe]
pEC50 [1]: 5.70 to 6.52 | induction of IFN [7]: induction of IFN beta | pEC50 ([3]; Hepatitis C virus, Ava5, 72 h): ~5.52 | CC50 at 24 h [4]: > 1000 µM | Fold induction of IRF3 luciferase activity [5, 8]: 25 fold | fold induction at 1 µM ([5]; 1 μM, 12 h, HLE A549 cells, SMNH treated vs. untreated cells, read-out: Fold induction of IRF3 luciferase activity): 15 to 20 | % inhibition of RSV at 1 μM ([6]; 1 µM): 82%
